Experimental data published in patent US20190091198A1, “C[…] CANNABIS-BASED COMPOSITIONS AND METHODS FOR THE TREATMENT OF IN[…] THE GASTROINTESTINAL TRACT” (TO PHARMACEUTICALS LLC, priority 2016, published 2019).

Assay type: in vivo, human
Conditions: for maximal mean blood (serum) level: single sublingual dose of Avidekel oil, 4 drops (6.4 mg Δ9-THC and 26 mg CBD), N=7, LC-MS/MS
Procedure: Blood samples were withdrawn at time 0 and after administration of Avidekel oil extract, a sublingual dose 4 drops. Blood samples were withdrawn in intervals of 15, 30, 45, 60 and 90 min., and 2, 3, 4, 5, and 6 h., and stored at −70° C. until analysis at NMS Labs using LC-MS/MS.
FIG. 2A-2D show mean cannabinoid blood levels after administration of a single dose of Avidekel oil (6.4 mg Δ^9-THC and 26 mg CBD).

[1] = single dose of Avidekel oil (6.4 mg Δ9-THC and 26 mg CBD), N=7

SMILES: CCCCCc1cc(O)c2c(c1)OC(C)(C)[C@@H]1CCC(CO)=C[C@@H]21 [11-Hydroxy Δ^9-THC]
- mean blood level after the drop from the maximum (single dose of Avidekel oil (6.4 mg Δ9-THC and 26 mg CBD), N=7, within 6 h sampling period): 1.9 ± 1.1 ng/mL
- maximal mean blood (serum) level: 4.5 ± 4.2 ng/mL

SMILES: C=C(C)[C@@H]1CCC(C)=C[C@H]1c1c(O)cc(CCCCC)cc1O [CBD, 2-[(1R,6R)-6-isopropenyl-3-1-yl]-5-pentylbenzene-1,3-diol, reference compound]
- maximal mean blood (serum) level: 6.2 ± 5.9 ng/mL

SMILES: CCCCCc1cc(O)c2c(c1)OC(C)(C)[C@@H]1CCC(C(=O)O)=C[C@@H]21 [Δ^9 Carboxy THC]
- mean blood level after 90 min [1]: 34.5 ± 47.7 ng/mL
- mean blood level reached during the 6 h period (still rising) [1]: 75.5 ± 77.0 ng/mL

SMILES: CCCCCc1cc(O)c2c(c1)OC(C)(C)[C@@H]1CCC(C)=C[C@@H]21 [Δ^9-THC, (−)-(6aR,10aR)-6,6,9-Trimethyl-3-methylcyclohex-2-en-pentyl-6a,7,8,10α-tetrahydro-6H-benzo[c]chromen-1-ol, reference compound]
- blood levels 6 h after administration [1]: typical to those after 24 hours of Cannabis washout
- maximal mean blood (serum) level: 2.3 ± 2.2 ng/mL
